From ChEMBL document CHEMBL5154881, “Discovery of First-in-Class TAK1-MKK3 Protein-Protein Interaction (PPI) Inhibitor (R)-STU104 for the Treatment of Ulcerative Colitis through Modulating TNF-α Production” (J Med Chem, 2022)

Key:
Mus musculus [1] = experiment: Anti-ulcerative colitis activity in DSS-induced C57BL/6 mouse ulcerative colitis model assessed as colon length recovery ratio at 10 mg/kg, IG via gavage measured after 7 days relative to control; format: functional; settings: time 7 day
[2] = Apparent volume of distribution in 12 hr starved C57 mouse at 30 mg/kg, po measured for 0.083 to 24 hrs post-dose by LC-MS-MS analysis; format: ADME, organism-based; settings: in vivo, time 0.083-24 hrs
Mus musculus [3] = experiment: Antiinflammatory activity against DSS-induced C57BL/6 mouse model of acute ulcerative colitis assessed as inhibition ratio of IL-23 protein expression at 1 mg/kg, IG via gavage measured after 7 days by ELISA relative to control; format: functional; design: scale not given: the % may be the effect or the level left; settings: time 7 day
[4] = molecular target: T1, Dual specificity mitogen-activated protein kinase kinase 3 (Homo sapiens, UniProt P46734); experiment: Binding affinity to CM5 chip immobilized human MKK3 (20 to 347 residues) expressed in Escherichia coli BL21 (DE3) assessed as dissociation constant, Kd by surface plasmon resonance analysis
T1 sequence (P46734 whole entry): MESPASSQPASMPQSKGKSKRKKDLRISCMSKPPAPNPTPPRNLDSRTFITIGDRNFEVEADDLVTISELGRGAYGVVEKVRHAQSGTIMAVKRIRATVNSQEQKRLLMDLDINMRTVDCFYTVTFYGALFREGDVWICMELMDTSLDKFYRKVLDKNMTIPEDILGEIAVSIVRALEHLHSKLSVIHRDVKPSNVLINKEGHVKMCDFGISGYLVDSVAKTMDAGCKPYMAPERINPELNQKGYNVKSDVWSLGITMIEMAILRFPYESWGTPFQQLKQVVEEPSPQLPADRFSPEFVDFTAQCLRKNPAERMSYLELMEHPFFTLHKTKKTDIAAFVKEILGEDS

Mus musculus [5] = experiment: Antiinflammatory activity against DSS-induced C57BL/6 mouse model of acute ulcerative colitis assessed as inhibition ratio of TNF-alpha protein expression at 10 mg/kg, IG via gavage measured after 7 days by ELISA relative to control; format: functional; design: scale not given: the % may be the effect or the level left; settings: time 7 day
Mus musculus [6] = experiment: Antiinflammatory activity against DSS-induced C57BL/6 mouse model of acute ulcerative colitis assessed as reduction in serum IL-23 levels administered intragastrically via gavage measured after 7 days by ELISA; format: functional, organism-based; settings: dose 1-10 mg/kg, route ig, time 7.0 day, DDE = dose-dependent effect
Mus musculus [7] = experiment: Anti-ulcerative colitis activity in DSS-induced C57BL/6 mouse ulcerative colitis model assessed as histopathological score recovery ratio at 1 mg/kg, IG via gavage measured after 7 days by H and E staining method relative to control; format: functional; settings: time 7 day

`COc1ccc([C@H]2CC(=O)c3cc(OC)cc(OC)c32)cc1` showed an Activity (Mus musculus [1]) of 57.6%, a Vz [2] of 3.68 L/kg and an Activity (Mus musculus [3]) of 46.2%. For the same compound, the Kd [4] was 3.61 10^-3/s, the Activity (Mus musculus [5]) was 58.1% and the Activity (Mus musculus [6]) was “Dde”. It also gave an Activity (Mus musculus [7]) of 25%.
